The source of these data is patent US10023570B2 (Array BioPharma, Inc., priority 2015, dated 2018).

Counter-ions that a name gives are not always drawn.

The IC50 is the concentration at which inhibition is half-maximal.

One test deals with human KDR protein in HEK-293 cells (Homo sapiens (Human), UniProt P35968). The test can be described thus: KDR Cell Assay (phospho-KDR in HEK-293 cells expressing inducible KDR). It counts as cell-based. As to conditions: pKDR Cell HEK 10% FBS IC50, HEK-293 cells expressing inducible KDR, VEGF stimulated. On the procedure: The cellular potency of a compound inhibiting KDR kinase was determined in HEK-293 cells expressing an inducible human KDR protein. […] The cells were incubated for 1 hour with test compound in DMEM at a final DMSO concentration of 0.25%. […] The media was aspirated and 35 μL of a 1× lysis buffer was added. […] The lysate was stored at −80° C. until ready for assay. Phospho-KDR was measured using a phospho-KDR kit (Catalog #K151BOC) purchased from Meso Scale Diagnostics (Rockville, Md.) according to the manufacturer's instructions. All values are expressed as percent of percent of control (POC). The POC values were fitted to a 4 parameter logistic curve fit and the IC50 value is point where the curve crosses 50 POC.
human KDR protein in HEK-293 cells, sequence (P35968 20-1356): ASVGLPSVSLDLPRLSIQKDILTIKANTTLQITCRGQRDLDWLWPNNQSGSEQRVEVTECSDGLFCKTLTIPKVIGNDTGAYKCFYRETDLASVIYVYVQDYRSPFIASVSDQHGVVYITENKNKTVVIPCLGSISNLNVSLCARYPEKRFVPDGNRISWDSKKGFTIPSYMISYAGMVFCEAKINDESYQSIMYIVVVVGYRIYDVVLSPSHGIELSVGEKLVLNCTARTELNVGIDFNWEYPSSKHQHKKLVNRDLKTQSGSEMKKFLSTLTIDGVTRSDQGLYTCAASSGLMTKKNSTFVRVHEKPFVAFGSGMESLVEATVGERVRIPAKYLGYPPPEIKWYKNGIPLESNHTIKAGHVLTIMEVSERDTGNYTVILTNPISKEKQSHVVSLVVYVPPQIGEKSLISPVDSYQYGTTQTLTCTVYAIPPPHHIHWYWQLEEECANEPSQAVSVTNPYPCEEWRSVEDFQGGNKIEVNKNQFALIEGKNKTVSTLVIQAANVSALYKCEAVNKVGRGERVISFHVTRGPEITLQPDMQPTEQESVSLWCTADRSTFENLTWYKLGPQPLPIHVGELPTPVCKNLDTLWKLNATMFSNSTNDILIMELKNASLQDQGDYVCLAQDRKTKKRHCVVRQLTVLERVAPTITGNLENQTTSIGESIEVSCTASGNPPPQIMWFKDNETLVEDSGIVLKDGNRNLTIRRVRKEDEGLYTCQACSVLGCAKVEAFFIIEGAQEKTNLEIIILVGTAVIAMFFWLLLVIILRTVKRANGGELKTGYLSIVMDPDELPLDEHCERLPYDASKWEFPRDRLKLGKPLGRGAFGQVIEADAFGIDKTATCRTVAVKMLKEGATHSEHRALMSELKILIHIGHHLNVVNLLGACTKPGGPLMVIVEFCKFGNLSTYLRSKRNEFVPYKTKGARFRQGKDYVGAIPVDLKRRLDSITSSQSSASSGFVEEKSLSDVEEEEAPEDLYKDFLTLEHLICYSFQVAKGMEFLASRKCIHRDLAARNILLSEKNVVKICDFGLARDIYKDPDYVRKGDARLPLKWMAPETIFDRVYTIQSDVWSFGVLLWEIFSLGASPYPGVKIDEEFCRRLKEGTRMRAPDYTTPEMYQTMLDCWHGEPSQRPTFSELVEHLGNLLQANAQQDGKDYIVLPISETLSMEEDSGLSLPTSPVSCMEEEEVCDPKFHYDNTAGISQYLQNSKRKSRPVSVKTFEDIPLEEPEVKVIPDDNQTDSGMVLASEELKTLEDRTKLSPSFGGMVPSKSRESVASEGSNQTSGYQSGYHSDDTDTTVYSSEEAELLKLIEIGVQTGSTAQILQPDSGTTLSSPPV
`Cn1cc(-c2cc(-c3ccc(N4CCC(c5ccccc5)C4)nc3)c3c(C#N)cnn3c2)cn1` (stereo not drawn) [Example 533, 6-(1-methyl-1H-pyrazol-4-yl)-4-(6-(3-phenylpyrrolidin-1-yl)pyridin-3-yl)pyrazolo[1,5-a]pyridine-3-carbonitrile 2,2,2-trifluoroacetate] showed an IC50 of 4860 nM.
Consider `Cc1ncc(-c2cc(-c3ccc(N4CCN(Cc5ccccc5)CC4)nc3)c3c(C#N)cnn3c2)o1` [Example 628, 4-(6-(4-benzylpiperazin-1-yl)pyridin-3-yl)-6-(2-methyloxazol-5-yl)pyrazolo[1,5-a]pyridine-3-carbonitrile], for which the IC50 is ≥ 5000 nM.
In the case of `CN1CCCC12CCCN(c1ccc(-c3cc(-c4cnn(C)c4)cn4ncc(C#N)c34)cn1)C2` (stereo not drawn) [Example 557, 4-(6-(1-methyl-1,7-diazaspiro[4.5]decan-7-yl)pyridin-3-yl)-6-(1-methyl-1H-pyrazol-4-yl)pyrazolo[1,5-a]pyridine-3-carbonitrile], the IC50 stood at 802 nM.
`Cn1cc(-c2cc(-c3ccc(N4CCC5(CCCN(C(=O)OC(C)(C)C)C5)CC4)nc3)c3c(C#N)cnn3c2)cn1` [Example 504, tert-Butyl 9-(5-(3-cyano-6-(1-methyl-1H-pyrazol-4-yl)pyrazolo[1,5-a]pyridin-4-yl)pyridine-2-yl)-2,9-diazaspiro[5.5]undecane-2-carboxylate] returned an IC50 of 2070 nM.
In the case of `Cn1cc(-c2cc(-c3ccc(N4CCN(Cc5ccc(F)cc5)CC4)nc3)c3c(C#N)cnn3c2)cn1` [Example 424, 4-(6-(4-(4-fluorobenzyl)piperazin-1-yl)pyridin-3-yl)-6-(1-methyl-1H-pyrazol-4-yl)pyrazolo[1,5-a]pyridine-3-carbonitrile], the midpoint of inhibition, the IC50, lay at 630 nM.

The test is the same for the next values; noted with them: pKDR Cell HEK 10% FBS IC50, HEK-293 cells expressing inducible KDR, VEGF stimulated, 10% FBS.
For the compound `Cn1cc(-c2cc(-c3ccc(N4CCN(C(=O)CN5CCOCC5)CC4)nc3)c3c(C#N)cnn3c2)cn1` [Example 362, 6-(1-methyl-1H-pyrazol-4-yl)-4-(6-(4-(2-morpholinoacetyl)piperazin-1-yl)pyridin-3-yl)pyrazolo[1,5-a]pyridine-3-carbonitrile bis(2,2,2-trifluoroacetate)], the midpoint of inhibition, the IC50, lay at 1860 nM.
Consider `CN1CCN(C(=O)N2CCN(c3ccc(-c4cc(-c5cnn(C)c5)cn5ncc(C#N)c45)cn3)CC2)CC1` [Example 120, 6-(1-methyl-1H-pyrazol-4-yl)-4-(6-(4-(4-methylpiperazine-1-carbonyl)piperazin-1-yl)pyridin-3-yl)pyrazolo[1,5-a]pyridine-3-carbonitrile], for which the IC50 was determined as 2240 nM. The IC50 values of the last two compounds are within 1.5-fold of each other.
In turn, `Cn1cc(-c2cc(-c3ccc(N4CCN(C(=O)N5CCC(C)(C)C5)CC4)nc3)c3c(C#N)cnn3c2)cn1` [Example 118, 4-(6-(4-(3,3-dimethylpyrrolidine-1-carbonyl)piperazin-1-yl)pyridin-3-yl)-6-(1-methyl-1H-pyrazol-4-yl)pyrazolo[1,5-a]pyridine-3-carbonitrile] registered an IC50 of 606 nM.
As to `Cn1cc(-c2cc(-c3ccc(N4CCN(C(=O)CC5CC5)CC4)nc3)c3c(C#N)cnn3c2)cn1` [Example 77, 4-(6-(4-(2-cyclopropylacetyl)piperazin-1-yl)pyridin-3-yl)-6-(1-methyl-1H-pyrazol-4-yl)pyrazolo[1,5-a]pyridine-3-carbonitrile], the IC50 came to 605 nM.
Regarding `Cn1cc(-c2cc(-c3ccc(N4CCN(C(=O)C5(c6ccc(Cl)cc6)CC5)CC4)nc3)c3c(C#N)cnn3c2)cn1` [Example 341, 4-(6-(4-(1-(4-chlorophenyl)cyclopropanecarbonyl)piperazin-1-yl)pyridin-3-yl)-6-(1-methyl-1H-pyrazol-4-yl)pyrazolo[1,5-a]pyridine-3-carbonitrile], inhibition was half-maximal at 237 nM (IC50).
The compound `CO[C@@H](C(=O)N1CCN(c2ccc(-c3cc(-c4cnn(C)c4)cn4ncc(C#N)c34)cn2)CC1)c1ccccc1` [Example 83] came in with an IC50 of 135 nM.
`Cn1cc(-c2cc(-c3ccc(N4CC[C@H](C(=O)NCCC(F)(F)F)C4)nc3)c3c(C#N)cnn3c2)cn1` [Example 262, (S)-1-(5-(3-cyano-6-(1-methyl-1H-pyrazol-4-yl)pyrazolo[1,5-a]pyridin-4-yl)pyridin-2-yl)-N-(3,3,3-trifluoropropyl)pyrrolidine-3-carboxamide]: the half-maximal inhibitory concentration (IC50) was determined as 617 nM.
Compound `Cn1cc(-c2cc(-c3ccc(N4CCNC5(CC5)C4)nc3)c3c(C#N)cnn3c2)cn1` [Example 167, 4-(6-(4,7-diazaspiro[2.5]octan-7-yl)pyridin-3-yl)-6-(1-methyl-1H-pyrazol-4-yl)pyrazolo[1,5-a]pyridine-3-carbonitrile dihydrochloride] yielded an IC50 of 780 nM.
`Cn1cc(-c2cc(-c3ccc(N4CCNCC4)cc3)c3c(C#N)cnn3c2)cn1` [Example 291, 6-(1-methyl-1H-pyrazol-4-yl)-4-(4-(piperazin-1-yl)phenyl)pyrazolo[1,5-a]pyridine-3-carbonitrile dihydrochloride] had an IC50 of 918 nM. The IC50 values of the last two compounds are within 1.5-fold of each other.
`Cn1cc(-c2cc(-c3ccc(C4CCNCC4)cc3)c3c(C#N)cnn3c2)cn1` [Example 301, 6-(1-methyl-1H-pyrazol-4-yl)-4-(4-(piperidin-4-yl)phenyl)pyrazolo[1,5-a]pyridine-3-carbonitrile dihydrochloride] had an IC50 of 158 nM. This IC50 is about 5.8-fold lower than that of the compound before.
In turn, `CN(C(=O)N1CCN(c2ccc(-c3cc(-c4cnn(C)c4)cn4ncc(C#N)c34)cn2)CC1)c1ccccc1` [Example 109, 4-(5-(3-cyano-6-(1-methyl-1H-pyrazol-4-yl)pyrazolo[1,5-a]pyridin-4-yl)pyridin-2-yl)-N-methyl-N-phenylpiperazine-1-carboxamide] returned an IC50 of 360 nM.
In the case of `Cn1cc(-c2cc(-c3ccc(N4CCC(NC(=O)[C@H]5CCCO5)CC4)nc3)c3c(C#N)cnn3c2)cn1` [Example 178, (R)—N-(1-(5-(3-cyano-6-(1-methyl-1H-pyrazol-4-yl)pyrazolo[1,5-a]pyridin-4-yl)pyridin-2-yl)piperidin-4-yl)tetrahydrofuran-2-carboxamide], half-maximal inhibition (IC50) required 426 nM.
Turning to `Cn1cc(-c2cc(-c3ccc(N4CCN(C(=O)C5(c6ccccc6)CCC5)CC4)nc3)c3c(C#N)cnn3c2)cn1` [Example 27, 6-(1-methyl-1H-pyrazol-4-yl)-4-(6-(4-(1-phenylcyclobutane-1-carbonyl)piperazin-1-yl)pyridin-3-yl)pyrazolo[1,5-a]pyridine-3-carbonitrile], the IC50 was determined as 651 nM.
`Cn1cc(-c2cc(-c3ccc(N4CCN(C(=O)N5CCOCC5)CC4)nc3)c3c(C#N)cnn3c2)cn1` [Example 119, 6-(1-methyl-1H-pyrazol-4-yl)-4-(6-(4-(morpholine-4-carbonyl)piperazin-1-yl)pyridin-3-yl)pyrazolo[1,5-a]pyridine-3-carbonitrile] showed an IC50 of 2270 nM.
On the same count and under the same terms, in the case of `Cc1cnc(C(=O)N2CCN(c3ccc(-c4cc(-c5cnn(C)c5)cn5ncc(C#N)c45)cn3)CC2)cn1` [Example 49, 6-(1-methyl-1H-pyrazol-4-yl)-4-(6-(4-(5-methylpyrazine-2-carbonyl)piperazin-1-yl)pyridin-3-yl)pyrazolo[1,5-a]pyridine-3-carbonitrile bis(2,2,2-trifluoroacetate)] it was 237 nM; in that of `Cn1cc(-c2cc(-c3ccc(N4CCN(C(=O)[C@@H](O)c5ccccc5)CC4)nc3)c3c(C#N)cnn3c2)cn1` [Example 6, (S)-4-(6-(4-(2-hydroxy-2-phenylacetyl)piperazin-1-yl)pyridin-3-yl)-6-(1-methyl-1H-pyrazol-4-yl)pyrazolo[1,5-a]pyridine-3-carbonitrile], 115 nM.
